Results from patent US20220362353A1, “DRUG COMBINATION FOR PREVENTING OR TREATING IRRITABLE BOWEL SYNDROME” (GUANGZHOU CENTURY CLINICAL RESEARCH CO., LTD, priority 2019, published 2022).

Experiments:
[1] = test system: irritable bowel syndrome model animals; assay: Abdominal withdrawal reflex (AWR) test after colorectal distension; format: in vivo, SD rats (Sprague-Dawley rats); conditions: for Abdominal withdrawal reflex scores of colorectal distension at different pressures (mean ± SD): 3 months old, after 1-month daily gavage, score 0-4
Method: In this example, the irritable bowel syndrome model was induced by daily applying colorectal distension as a stimulating factor to neonatal SD rats (Sprague-Dawley rats) from 8 days old to 21 days old. This model animal had visceral hypersensitivity of irritable bowel syndrome and without colonitis and mucosal injury. Colorectal distension stimulation was not given any more from 21 days old to 8 weeks old. A test drug or placebo was administered daily by gavage from 8 weeks old to 3 months old. On the 8 weeks old (before the beginning of the 1-month drug administration period) and about 3 months old (after the end of the 1-month drug administration period), behavioral and neural responses of rats to colorectal distention stimulation were tested by an abdominal wall withdrawal reflex test and an electromyography test. 8-day-old neonatal male SD rats with normal body weight were exposed to a 12:12 hr light-dark cycle. Every 12 neonatal rats and 1 adult female rat were co-bred with rat milk until 25 days old. Then every 4 neonatal rats were fed in the same cage, and they were allowed to eat and drink freely. The SD rats were randomly divided into a normal control group, a model group, a dosmalfate group, a lysozyme group, a first combination group (a dosage ratio of dosmalfate to lysozyme was 0.05:1), a second combination group (a dosage ratio of dosmalfate to lysozyme was 0.1:1), a third combination group (a dosage ratio of dosmalfate to lysozyme was 10:1), and a fourth combination group (a dosage ratio of dosmalfate to lysozyme was 20:1), and 12 animals were assigned to each group. Except for normal control group, colorectal distension (CRD) stimulation was applied to the rats in other groups every day from 8 days old to 21 days old to induce irritable bowel syndrome. The concrete operation method was as follows: a flexible balloon (with a polytetrafluoroethylene catheter; the balloon should be inflated overnight before the experiment so that it has better compliance) made of the fingers of surgical gloves, was smeared with vaseline, inserted from the anus of the rat to the colon and then fixed at the tail distanced away from the anus by 2 cm. The balloon was connected with a valve via the catheter, and the valve was additionally connected with a sphygmomanometer. Rats were placed in small plastic cages to restrict their turning and acclimatized for 30 minutes. The balloon was slowly inflated to 60 mm Hg with the sphygmomanometer, and deflated after stimulation for 20 seconds; the stimulation was repeated twice within 1 hour (with an interval of 30 minutes each time). Except for normal control group and model group, test drugs (wetted in 0.5% sodium carboxymethyl cellulose solution) were administrated to the rats in the other groups by gavage daily from 8 weeks old to 3 months old, and the dosage was 8 ml. The abdominal wall withdrawal reflex test was used to detect behavioral responses of rats to colorectal distension stimulation. This test was performed when rats in respective groups were 8 weeks old (before the start of the 1-month drug administration period) and 3 months old (after the end of the 1-month drug administration period). The rats were fasted overnight before undergoing the abdominal wall withdrawal reflex test, so as to reduce gastrointestinal contents. During the test, a flexible balloon (with a thin-walled polytetrafluoroethylene catheter; the balloon should be inflated overnight before the experiment so that it has better compliance) made of the fingers of surgical gloves, was smeared with vaseline and inserted from the anus of the rat by 7 cm to the colon and fixed at the caudal point by 2 cm distanced away from the anus. The balloon was connected with the valve via the catheter, and the valve was additionally connected with a sphygmomanometer. Rats were placed in small plastic cages to restrict their turning and acclimatized for 30 minutes. […]

[2] = test system: irritable bowel syndrome model animals; assay: Electromyography (EMG) test of external oblique abdominal muscles after colorectal distension; format: in vivo, SD rats (Sprague-Dawley rats); conditions: for AUC (%) of EMG of colorectal distension at different pressures (mean ± SD): 3 months old, after 1-month daily gavage, normalized to average baseline amplitude (100%)
Method: In this example, the irritable bowel syndrome model was induced by daily applying colorectal distension as a stimulating factor to neonatal SD rats (Sprague-Dawley rats) from 8 days old to 21 days old. This model animal had visceral hypersensitivity of irritable bowel syndrome and without colonitis and mucosal injury. Colorectal distension stimulation was not given any more from 21 days old to 8 weeks old. A test drug or placebo was administered daily by gavage from 8 weeks old to 3 months old. On the 8 weeks old (before the beginning of the 1-month drug administration period) and about 3 months old (after the end of the 1-month drug administration period), behavioral and neural responses of rats to colorectal distention stimulation were tested by an abdominal wall withdrawal reflex test and an electromyography test. 8-day-old neonatal male SD rats with normal body weight were exposed to a 12:12 hr light-dark cycle. Every 12 neonatal rats and 1 adult female rat were co-bred with rat milk until 25 days old. Then every 4 neonatal rats were fed in the same cage, and they were allowed to eat and drink freely. The SD rats were randomly divided into a normal control group, a model group, a dosmalfate group, a lysozyme group, a first combination group (a dosage ratio of dosmalfate to lysozyme was 0.05:1), a second combination group (a dosage ratio of dosmalfate to lysozyme was 0.1:1), a third combination group (a dosage ratio of dosmalfate to lysozyme was 10:1), and a fourth combination group (a dosage ratio of dosmalfate to lysozyme was 20:1), and 12 animals were assigned to each group. Except for normal control group, colorectal distension (CRD) stimulation was applied to the rats in other groups every day from 8 days old to 21 days old to induce irritable bowel syndrome. The concrete operation method was as follows: a flexible balloon (with a polytetrafluoroethylene catheter; the balloon should be inflated overnight before the experiment so that it has better compliance) made of the fingers of surgical gloves, was smeared with vaseline, inserted from the anus of the rat to the colon and then fixed at the tail distanced away from the anus by 2 cm. The balloon was connected with a valve via the catheter, and the valve was additionally connected with a sphygmomanometer. Rats were placed in small plastic cages to restrict their turning and acclimatized for 30 minutes. The balloon was slowly inflated to 60 mm Hg with the sphygmomanometer, and deflated after stimulation for 20 seconds; the stimulation was repeated twice within 1 hour (with an interval of 30 minutes each time). Except for normal control group and model group, test drugs (wetted in 0.5% sodium carboxymethyl cellulose solution) were administrated to the rats in the other groups by gavage daily from 8 weeks old to 3 months old, and the dosage was 8 ml. The visceral hypersensitivity (neural response) of rats to colorectal distension was quantified by measuring the electromyographic activity of external oblique abdominal muscles. When the rats in each group were 3 months old (after the end of the 1-month drug administration period), they were subjected to abdominal wall withdrawal reflex test followed by EMG test after abdominal wall withdrawal reflex test. On the second day when 3-month-old rats in each group were subjected to abdominal wall withdrawal reflex test, an appropriate amount of pentobarbital solution (50 mg/ml) was injected into the abdominal cavities of the rats, and the rats were fully anesthetized. The hairs on the lower abdomen and the back of the neck were cut, a needle electrode (tungsten microelectrode) was implanted into the left side of the abdomen of the rat, fixed in the muscle layer of the external oblique abdominal muscle, and the electrode wire was crossed through the subcutaneous of the left side of the rat to a small incision at the rear neck and out of the small incision. […]

Substance | Abdominal withdrawal reflex scores of colorectal distension at different pressures (mean ± SD) ([1]; 20 mm Hg) | Abdominal withdrawal reflex scores of colorectal distension at different pressures (mean ± SD) ([1]; 40 mm Hg) | Abdominal withdrawal reflex scores of colorectal distension at different pressures (mean ± SD) ([1]; 60 mm Hg) | AUC (%) of EMG of colorectal distension at different pressures (mean ± SD) ([2]; 20 mm Hg) | AUC (%) of EMG of colorectal distension at different pressures (mean ± SD) ([2]; 40 mm Hg) | AUC (%) of EMG of colorectal distension at different pressures (mean ± SD) ([2]; 60 mm Hg) | abdominal wall withdrawal reflex values compared with model group, in words ([1]; after administration) | EMG test result compared with model group, in words ([2]; after administration)
diosmin heptadiene (bisulfate) aluminum complex [Dosmalfate, reference compound] | 2.25 ± 0.45 | 2.56 ± 0.30 | 3.64 ± 0.30 | 332 ± 39% | 445 ± 99% | 644 ± 117 ^ % | – | –
Lysozyme | 2.11 ± 0.33 | 2.69 ± 0.41 | 3.56 ± 0.36 | 303 ± 36% | 394 ± 60% | 601 ± 60 ^ % | no significant difference | no significant difference
